# Literature values in PMC5845353, “The selective cathepsin K inhibitor MIV-711 attenuates joint pathology in experimental animal models of osteoarthritis” (Journal of Translational Medicine, 2018).
# Test system: HP-1
# Design: method as in PMID 22484689
# Settings: ACLT rabbits; cited from earlier work
smiles,measurement,value
CN1CCN(c2nc(-c3ccc(C(=O)NC4(C(=O)NCC#N)CCCCC4)cc3)cs2)CC1 [L-006235],reduction of HP-1 at dose sufficient for protection of bone loss,60%
